Results on 28 compounds are retold here after ChEMBL document CHEMBL1122746, “Tumor inhibitory triazenes. 3. Dealkylation within an homologous series and its relation to antitumor activity” (J Med Chem, 1984).

In general, logP refers to the decadic logarithm of the partition coefficient of the neutral form, usually between octanol and water.

Each structure is given as a SMILES string.

Data set [1] is described as follows: Partition coefficient (logP). Format: physicochemical. The following applies: octanol/water.
For data set [2], the system named is Mus musculus. The data set can be described thus: Antitumor activity is evaluated as the percent increase in lifespan of TLX/5 tumor bearing animals at 100 mg/kg, daily x 5. It counts as functional.
In data set [3] the test system is Mus musculus. Briefly: Antitumor activity is evaluated as the percent increase in lifespan of TLX/5 tumor bearing animals at 12.5 mg/kg, daily x 5. It counts as functional.
In data set [4] the test system is Mus musculus. The data set can be described thus: Antitumor activity is evaluated as the percent increase in lifespan of TLX/5 tumor bearing animals at 200 mg/kg, daily x 5. It counts as functional.
Data set [5] relates to Mus musculus. The data set can be described thus: Antitumor activity is evaluated as the percent increase in lifespan of TLX/5 tumor bearing animals at 25 mg/kg, daily x 5. It counts as functional.
Data set [6] relates to Mus musculus. The data set can be described thus: Antitumor activity is evaluated as the percent increase in lifespan of TLX/5 tumor bearing animals at 400 mg/kg, daily x 5. It counts as functional.
The subject of data set [7] is Mus musculus. The data set can be described thus: Antitumor activity is evaluated as the percent increase in lifespan of TLX/5 tumor bearing animals at 50 mg/kg, daily x 5. Format: functional.
The species named for data set [8] is Mus musculus. The data set can be described thus: Compound is evaluated for maximum percentage of increase in life span (ILS) in tumor bearing mice.
The species entered for data set [9] is Mus musculus. The data set can be described thus: (§1) Compound is evaluated in vitro for percent metabolism by mouse liver microsomes. It counts as functional. Also on record: concentration or dose not given beside the values. On the technique in general: Microsomes from liver hold many membrane-bound enzymes, among them those of drug oxidation.
Data set [10] is filed under the species Mus musculus. The data set can be described thus: (§2) Compound is evaluated in vitro for percent dealkylation by mouse liver microsomes. It counts as functional. Also on record: concentration or dose not given beside the values.
For data set [11], the species on record is Mus musculus. The data set can be described thus: Compound is evaluated in vitro for percent demethylation by mouse liver microsomes. Format: functional.
For data set [12], the species on record is Mus musculus. Described as §2. Format: functional.
Data set [13] is filed under the species Mus musculus. Described as §1. Format: functional.

For the compound `CCCCCN(C)/N=N/c1ccc(C(=O)O)cc1`, the logP in [1] (read-out: logP) is 1.49.

Consider `CCCCCCCCCCCCN(C)/N=N/c1ccc(C(N)=O)cc1`, for which the Increase in [2] is -1%; in data set [3] it was 1%; in data set [4], 13%; in [5], 3%; in [6], 9%; in data set [7], 3%. Also, the max % ILS per µmol/kg in data set [8] was found to be 0.023 %·kg/µmol.

Turning to `CCCCCCN(C)/N=N/c1ccc(C(N)=O)cc1`, the Increase is reported as 83% in data set [2]; 4% in [3]; 56% in data set [4]; 9% in data set [5]; 30% in [6]; 11% in data set [7]. Further, the Activity turned out to be 27% in [9], 14% in [10] and 13% in [11]. This compound also displayed a max % ILS per µmol/kg in [8] of 0.218 %·kg/µmol.

On to `CCCN(C)/N=N/c1ccc(C(=O)O)cc1`, for which the logP in data set [1] (read-out: logP) amounted to 0.46.

In the case of `CCCCCCCN(C)/N=N/c1ccc(C(N)=O)cc1`, the Increase was 65% in [2]; 2% in [3]; 15% in data set [4]; 6% in data set [5]; -20% in data set [6]; 15% in [7]. Besides, the Activity came to 11% in data set [11], 12% in data set [12] and 23% in data set [13]. Further, the max % ILS per µmol/kg in data set [8] was 0.18 %·kg/µmol.

Turning to `CN(O)/N=N/c1ccc(C(N)=O)cc1`, the Increase in [2] is 19%; in data set [4], 37%; in [6], 55%; in [7], 19%. The max % ILS per µmol/kg in [8] was found to be 0.036 %·kg/µmol.

`CCCCN(C)/N=N/c1ccc(C(N)=O)cc1`: in data set [1] (read-out: logP), the lipophilicity (logP) was 2.46. Also, the Increase is 83% in data set [2]; 18% in data set [3]; -12% in [4]; 23% in [5]; -51% in [6]; 91% in data set [7]. Besides, the Activity in data set [9] turned out to be 55%; in data set [10], 33.5%; in data set [11] it was 21.5%. Further, the max % ILS per µmol/kg in data set [8] stood at 0.426 %·kg/µmol.

For `CCCCCCCCN(C)/N=N/c1ccc(C(N)=O)cc1`, the log partition coefficient (logP) in data set [1] (read-out: logP) stood at 4.7. Also, the Increase in data set [2] is reported as 19%; in data set [3] it was -2%; in data set [4], 112%; in data set [5] it was 4%; in data set [6], 56%; in [7] it was 4%. In addition, the Activity in data set [9] turned out to be 19.5%; in [10], 8%; in [11], 11.5%. The max % ILS per µmol/kg in data set [8] worked out at 0.163 %·kg/µmol.

On to `CN(CCO)/N=N/c1ccc(C(N)=O)cc1`, for which the Increase is 7% in data set [2]; 1% in data set [3]; 42% in data set [4]; 0% in data set [5]; 38% in [6]; 5% in data set [7]. In data set [8], the max % ILS per µmol/kg was 0.047 %·kg/µmol.

Turning to `CCN(C)/N=N/c1ccc(C(N)=O)cc1`, in data set [1] (read-out: logP), the logP turned out to be 1.7. The Increase was 76% in data set [2]; 7% in data set [3]; -31% in [4]; 84% in data set [5]; -49% in data set [6]; 100% in data set [7]. Also, the Activity in data set [9] stood at 61.8%; in [10], 33.7%; in data set [11], 28.2%. In data set [8], this compound showed a max % ILS per µmol/kg of 0.693 %·kg/µmol.

For the compound `CCCCCCCN(C)/N=N/c1ccc(C(=O)O)cc1`, in [1] (read-out: logP), the log partition coefficient (logP) came out at 2.58.

Regarding `C#CCN(C)/N=N/c1ccc(C(=O)O)cc1`, the logP in data set [1] (read-out: logP) came out at 0.

As to `CON(C)/N=N/c1ccc(C(N)=O)cc1`, the Increase in data set [2] is recorded as -3%; in data set [3], -3%; in data set [4] it was -7%; in data set [5], -3%; in data set [6], -3%; in data set [7], -5%.

On to `CCN(CC)/N=N/c1ccc(C(N)=O)cc1`, for which the Activity came to 53.3% in data set [9], 53.3% in data set [10] and 0% in data set [11].

Regarding `CN(Cc1ccccc1)/N=N/c1ccc(C(N)=O)cc1`, the Increase in data set [2] is 9%; in data set [3] it was -3%; in [4] it was 86%; in data set [5], -1%; in data set [6] it was -36%; in [7] it was 3%. For the same compound, the max % ILS per µmol/kg in data set [8] came out at 0.145 %·kg/µmol.

With `CCCCN(C)/N=N/c1ccc(C(=O)O)cc1`, the logP in data set [1] (read-out: logP) stood at 0.97.

Regarding `CCCCCCCCN(C)/N=N/c1ccc(C(=O)O)cc1`, in data set [1] (read-out: logP), the logP is 2.77.

On to `CCCN(C)/N=N/c1ccc(C(N)=O)cc1`, for which the Increase is 41% in data set [2]; 7% in data set [3]; 20% in [4]; 113% in [5]; -45% in data set [6]; 60% in [7]. Also, the Activity in data set [9] came out at 58.3%; in data set [10] it was 33%; in data set [11], 25.3%. Moreover, in data set [8], the max % ILS per µmol/kg came to 0.996 %·kg/µmol.

Regarding `CCCCCCN(C)/N=N/c1ccc(C(=O)O)cc1`, the logP in data set [1] (read-out: logP) was determined as 1.95.

Regarding `CCN(C)/N=N/c1ccc(C(=O)O)cc1`, the logP in [1] (read-out: logP) amounted to 0.04.

On to `CC(C)N(C)/N=N/c1ccc(C(N)=O)cc1`, for which the logP in data set [1] (read-out: logP) amounted to 2. For the same compound, the Increase in [2] is 41%; in data set [3], 21%; in data set [4] it was -10%; in [5] it was 52%; in data set [6] it was -60%; in data set [7], 45%. The max % ILS per µmol/kg in [8] came out at 0.458 %·kg/µmol.

`CN(/N=N/c1ccc(C(N)=O)cc1)C(C)(C)C`: the Increase in [2] was 0%; in data set [3], 4%; in [4] it was 0%; in data set [5], -4%; in [7], -2%.

Take `C=CCN(C)/N=N/c1ccc(C(=O)O)cc1`: the logP in [1] (read-out: logP) came out at 0.32.

As for `CN(C)/N=N/c1ccc(C(N)=O)cc1`, the Increase is on record as 51% in [2]; 94% in data set [3]; -7% in data set [4]; 47% in [5]; -26% in data set [6]; 65% in data set [7]. The Activity amounted to 57.3% in data set [9], 1.8% in data set [10] and 55.5% in [11]. Further, the max % ILS per µmol/kg in data set [8] worked out at 1.45 %·kg/µmol.

In [1], `CN(C)/N=N/c1ccc(C(=O)O)cc1` yielded a logP of -0.44.

Take `CC(C)N(C)/N=N/c1ccc(C(=O)O)cc1`: the lipophilicity (logP) in data set [1] (read-out: logP) stood at 0.34.

Regarding `CCCCCN(C)/N=N/c1ccc(C(N)=O)cc1`, the Increase in data set [2] is 71%; in [3], 3%; in data set [4] it was -28%; in data set [5] it was 7%; in [6], -51%; in [7], 79%. Also, the results for the Activity in data set [9], in [10] and in data set [11] were 41.5%, 23.5% and 18%, respectively. Further, the max % ILS per µmol/kg in [8] worked out at 0.392 %·kg/µmol.

As for `CCC(C)CN(C)/N=N/c1ccc(C(=O)O)cc1` (stereo not drawn), in [1] (read-out: logP), the logP was found to be 1.33.
